Data set [1] is filed under the species Rattus norvegicus. As to the kind of experiment: Cardiotoxicity in Sprague-Dawley rat hindquarters ischemia/reperfusion model assessed as change in mean arterial pressure measured following ischemia/reperfusion. To be noted: in vivo. The class given is toxicity, organism-based, Artery.
Data set [2] concerns Ovis aries. Description: Cardioprotective activity in merino sheep ischemia/reperfusion injury model assessed as circulating LDH level 6.6 mg/kg, iv administered as bolus dose at 10 mins prior to reperfusion measured 3 hrs post-reperfusion by automated analyzer (reference value: 152 +/-50 U/L). It counts as functional.
Data set [3] can be described thus: Solubility of the compound in aqueous sodium carbonate. It counts as physicochemical.
The species entered for data set [4] is Rattus norvegicus. Description: Cardiotoxicity in Sprague-Dawley rat hindquarters ischemia/reperfusion model assessed as change in heart rate measured following ischemia/reperfusion by tachometer analysis. The class given is toxicity, organism-based. To be noted: in vivo.
Data set [5] relates to Thoracic aorta. As to the kind of experiment: Vasorelaxant activity in Sprague-Dawley rat thoracic aorta with intact endothelium assessed as Ca2+-induced contraction after 20 mins in absence of butyrylcholinesterase. It counts as functional, tissue-based.
Data set [6] has as its system Thoracic aorta. Description: Vasorelaxant activity in Sprague-Dawley rat thoracic aorta with intact endothelium assessed as inhibition of Ca2+-induced contraction pretreated with butyrylcholinesterase for 1 hr. It counts as functional, tissue-based. To be noted: for IC50: Rattus norvegicus, Sprague-Dawley, Thoracic aorta.
Data set [7] relates to Ovis aries. As to the kind of experiment: Cardioprotective activity in merino sheep ischemia/reperfusion injury model assessed as decrease in infarct size at 6.6 mg/kg, iv administered as bolus dose at 10 mins prior to reperfusion measured 3 hrs post-reperfusion by triphenyltetrazolium chloride staining. Details: dose 6.6 mg/kg. It counts as functional, organism-based.
The test system of data set [8] is Thoracic aorta. As to the kind of experiment: Inhibition of superoxide anion production in Sprague-Dawley rat thoracic aorta with intact endothelium by lucigenin-based chemiluminescence analysis in presence of NADPH and absence of butyrylcholinesterase. It counts as functional, tissue-based.
The next data set concerns Plasma. Description: Prodrug conversion in Sprague-Dawley rat plasma assessed as 3',4'-dihydroxyflavonol formation at 6.6 mg/kg, iv measured within 2 mins of drug administration by LC-MS/MS analysis. It counts as ADME, organism-based. To be noted: in vivo. Details: dose 6.6 mg/kg, route intravenous.
Data set [9] has as its system Rattus norvegicus. Description: Cardioprotective activity in iv dosed Sprague-Dawley rat hindquarters ischemia/reperfusion model assessed as decrease in circulating LDH level administered as bolus injection 5 mins prior to reperfusion by spectrophotometric analysis. The class given is functional, organism-based.
Data set [10] concerns Thoracic aorta. As to the kind of experiment: Inhibition of superoxide anion production in Sprague-Dawley rat thoracic aorta with intact endothelium pretreated with butyrylcholinesterase for 1 hr by lucigenin-based chemiluminescence analysis in presence of NADPH. It counts as functional.
The subject of data set [11] is Ovis aries. Description: Cardioprotective activity in merino sheep ischemia/reperfusion injury model assessed as infarct size at 5 mg/kg, iv administered as 20 mins infusion at 10 mins prior to reperfusion measured 3 hrs post-reperfusion by triphenyltetrazolium chloride staining (reference value: 80 +/-3%). It counts as functional.
In data set [12] the test system is Thoracic aorta. As to the kind of experiment: Vasorelaxant activity in Sprague-Dawley rat thoracic aorta with intact endothelium assessed as inhibition of Ca2+-induced contraction after 20 mins. The class given is functional, tissue-based. Particulars: for IC50: Rattus norvegicus, Sprague-Dawley, Thoracic aorta, 20 min.
The subject of data set [13] is Ovis aries. Description: Cardioprotective activity in iv dosed merino sheep ischemia/reperfusion injury model assessed as circulating LDH level measured 2 hrs post-reperfusion (reference value: 604 +/-58 U/L). The class given is functional.
Data set [14] deals with Thoracic aorta. As to the kind of experiment: Inhibition of superoxide anion production in Sprague-Dawley rat thoracic aorta with intact endothelium by lucigenin-based chemiluminescence analysis in presence of NADPH. It counts as functional.
For data set [15], the system named is Thoracic aorta. As to the kind of experiment: Inhibition of superoxide anion production in Sprague-Dawley rat thoracic aorta with intact endothelium by lucigenin-based chemiluminescence analysis in presence of NADPH and alkaline phosphatase. The class given is functional.
The test system of data set [16] is Thoracic aorta. As to the kind of experiment: Vasorelaxant activity in Sprague-Dawley rat thoracic aorta with intact endothelium assessed as inhibition of Ca2+-induced contraction after 20 mins in presence of alkaline phosphatase. The class given is functional, tissue-based. To be noted: for IC50: Rattus norvegicus, Sprague-Dawley, Thoracic aorta, 20 min.
Data set [17] concerns Thoracic aorta. Description: Vasorelaxant activity in Sprague-Dawley rat thoracic aorta with intact endothelium assessed as Ca2+-induced contraction after 20 mins in absence of alkaline phosphatase. It counts as functional, tissue-based.
A short description of data set [18]: Aqueous solubility of the compound. It counts as physicochemical. Particulars: water (aqueous).

Consider 7 molecules from ChEMBL document CHEMBL3217632, “Water soluble flavonol prodrugs that protect against ischaemia-reperfusion injury in rat hindlimb and sheep heart” (Medchemcomm, 2011).

The source made the active and inactive calls. The calls are words filed in the database; no cut-off is given here. Some results are limits rather than exact numbers.

Broadly, the solubility is the concentration that dissolves in the medium under given conditions. High values mean much dissolved substance, low ones little dissolved substance. Broadly, the IC50 is the point on the concentration scale where inhibition reaches its midpoint. As to `O=C(O)CCCCC(=O)Oc1c(-c2ccc(O)c(O)c2)oc2ccccc2c1=O`, the Activity entry is on record as “Non-toxic” in the data set filed under Rattus norvegicus [1], 70 U/L in the data set on Ovis aries [2] and “Non-toxic” in the data set listed under Rattus norvegicus [4]. Moreover, the solubility in data set [3] was more than 50 mg/mL. Also, the outcome in the data set on Thoracic aorta [5] was inactive. Also, the results for the Rmax in the data set with Thoracic aorta [6] and with Thoracic aorta [10] were 76% and 70%, respectively. The IC50 with Thoracic aorta [6] is 33.9 µM. In addition, the result in the data set on Ovis aries [7] and with Rattus norvegicus [9] was Active. For the same molecule, the inhibition entry in the data set on Thoracic aorta [8] was “inactive”. In the data set with Plasma, the Drug metabolism entry was “Active”.

Consider `O=c1c(O)c(-c2ccc(O)c(O)c2)oc2ccccc12`, for which the Activity result in the data set listed under Rattus norvegicus [1] is listed as “Non-toxic”; in the data set on Ovis aries [11], 50%; in the data set listed under Rattus norvegicus [4] it was “Non-toxic”; in the data set on Ovis aries [13] it was 405 U/L. For the same molecule, the Rmax in the data set on Thoracic aorta [12] turned out to be 89%; in the data set with Thoracic aorta [14], 84%. In addition, the IC50 with Thoracic aorta [12] is 9.55 µM.

Take `O=c1c(OP(=O)([O-])[O-])c(-c2ccccc2)oc2ccccc12.[Na+].[Na+]`: in the data set with Thoracic aorta [15], the Rmax is listed as 36%. In addition, in the data set on Thoracic aorta [16], the Rmax is 40% and the IC50 was 4.68 µM. Also, the outcome in the data set on Thoracic aorta [17] was inactive. This molecule also registered a solubility in data set [18] of more than 200 mg/mL.

Take `O=c1c(O)c(-c2ccccc2)oc2ccccc12` [FLAVONOL]: in the data set with Thoracic aorta [12], the Rmax worked out at 19% and the IC50 is 4.27 µM. The molecule further displayed a solubility in data set [18] of less than 1 mg/mL. Also, in the data set on Thoracic aorta [14], the Rmax was found to be 20%.

Regarding `O=C(O)CCCCC(=O)Oc1c(-c2ccc(O)cc2)oc2ccccc2c1=O`, in data set [3], the solubility is more than 50 mg/mL. The outcome in the data set with Thoracic aorta [5] was inactive. In addition, the Rmax was 70% in the data set on Thoracic aorta [6] and 30% in the data set with Thoracic aorta [10]. Besides, the IC50 in the data set with Thoracic aorta [6] is 35.5 µM. Besides, the inhibition entry in the data set on Thoracic aorta [8] is “inactive”.

Turning to `O=c1c(O)c(-c2ccc(O)cc2)oc2ccccc12`, in the data set on Thoracic aorta [12], the Rmax came to 70% and the IC50 was 11.7 µM. In addition, the solubility in data set [18] was less than 1 mg/mL. Moreover, in the data set on Thoracic aorta [14], the Rmax amounted to 62%.

With `O=c1c(OP(=O)([O-])[O-])c(-c2ccc(O)cc2)oc2ccccc12.[Na+].[Na+]`, the Activity result in the data set filed under Rattus norvegicus [1] and in the data set filed under Rattus norvegicus [4] was “Non-toxic” each time. The results for the Rmax with Thoracic aorta [15] and in the data set on Thoracic aorta [16] were 27% and 63%, respectively. Moreover, the IC50 with Thoracic aorta [16] was 3.98 µM. Further, the outcome in the data set on Thoracic aorta [17] was inactive. Besides, the outcome with Ovis aries [7] and in the data set on Rattus norvegicus [9] was Active. The solubility in [18] is more than 200 mg/mL.
